According to patent publication US9670213B2, “Pteridine ketone derivative and applications thereof as EGFR, BLK, and FLT3 inhibitor” (EAST CHINA UNIVERSITY OF SCIENCE AND TECHNOLOGY, priority 2012, dated 2017):

How the values were obtained:
wild-type EGFR = wild-type EGFR (Homo sapiens (Human), UniProt P00533); assay: In vitro EGFR kinase activity assay (Z'-Lyte); assay type: biochemical; settings: EGFR WT; read-out: Inhibitory activity on EGFR kinase (IC50, nM) WT;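 note: Ten-point dose series from 5.1×10^−11 to 1.0×10^−6 mol/L, kinase reaction 1.5 h at room temperature, then 1 h development cleaving unphosphorylated peptide, phosphopeptide as 100% phosphorylation control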
Method: (§8) Inhibitory effects in vitro of the compounds provided in the present invention on EGFR kinase activity was tested as follows:
(§9) 10 concentration gradients, from 5.1×10^−11 mol/L to 1.0×10^−6 mol/L, were set for all of the compounds to be tested.
(§10) 10 μL of kinase reaction system comprised 2.5 μL of compound solution, 5 μL of Kinase/peptide mixture, and 2.5 μL of ATP solution. 5 μL of phosphopeptide solution was used in place of kinase/peptide mixture as 100% phosphorylation control. […] After thoroughly mixing the solution within the plate, the plate was incubated at room temperature for 1.5 hours. 5 μL of DevelopmentSolution was added into each well, and then the plate was incubated at room temperature for another 1 hour, and non-phosphorylated peptide was cleaved within this period. Finally, the reaction was quenched by adding 5 μL of Stop Reagent. The Plate was measured with EnVision Multilabel Reader (Perkin Elmer). Experimental data were calculated by using GraphPad Prism version 4.0. Each experiment was repeated more than three times.

EGFR-L858R = EGFR-L858R (Homo sapiens (Human), UniProt P00533, L858R); assay: In vitro EGFR kinase activity assay (Z'-Lyte); assay type: biochemical; settings: read-out: Inhibitory activity on EGFR kinase (IC50, nM) L858R;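 note: Cell-free kinase reaction with peptide substrate and ATP, 1.5 h at room temperature, then development step cleaving non-phosphorylated peptide, 10-point dilution series 0.051–1000 nM, phosphopeptide as 100% phosphorylation control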
Method: as §8, §9, §10

EGFR-L858R/T790M = EGFR-L858R/T790M (Homo sapiens (Human), UniProt P00533, L858R/T790M); assay: In vitro EGFR kinase activity assay (Z'-Lyte); assay type: biochemical; settings: read-out: Inhibitory activity on EGFR kinase (IC50, nM) T790M/L858R;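 note: Cell-free kinase reaction with peptide substrate and ATP, 1.5 h at room temperature, development cleaving unphosphorylated peptide, 10-point dilution 0.051–1000 nM, phosphopeptide as 100% phosphorylation control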
Method: as §8, §9, §10

[1] = tested on: H1975 (non-small cell lung cancer cells, EGFR L858R/T790M); assay: Cell proliferation and growth inhibition analysis; assay type: cell-based; settings: Homo sapiens, NCI-H1975, 72 hours, read-out: Inhibitory activity on cell proliferation (IC50, μM) H1975
Method: (§1) Cell proliferation was evaluated by MTS assay. Cells were exposed to the process conditions for 72 hours, and the number of cells for each cell line used in the experiment was adjusted according to the absorbance value (absorbance value at 490 nm was 1.3-2.2). 6 concentration gradients (0.1 nM-10 μM) were set for the compounds to be tested, with six parallel controls for each concentration.
(§2) H1975, HCC827, A549, BT474, MCF-7, SK-BR-3 cells were cultured in the corresponding medium. Upon recovery, the cells were passaged at least two times and then used in experiments. Cells in Log phase were trypsinized and resuspended in the medium. H1975 (1000 cells per well), BT474 (1500 cells per well), MCF-7 (1500 cells per well), HCC827 (2000 cells per well), SK-BR-3 (2000 cells per well), A549 (2000 cells per well) were seeded into 96-well plates, the volume was 100 μL, and 6 rows and 7 columns were set. The plate was placed in an incubator at 37° C. of 5% carbon dioxide overnight. Compounds were dissolved in DMSO to obtain the concentration of […], and then gradually diluted to obtain the concentration of compound as […], 0.1 μM, 0.01 μM, 0.001 μM, 0.0001 μM. 2 μL of compound solution was added into 998 μL of medium, and the resulting mixture was thoroughly mixed. 100 μL of mixture was added into 96-well plate. […] After the cells were cultured for 68 hours, 20 μL of MTT (5 mg/mL) was added. After 4 hours, the supernatant was discarded and 150 μL of DMSO was added. The resulting system was shaken for 10 minutes, and the plate was read with Synergy HT (Bio TeK) (OD490). The data was calculated by GraphPad Prism version 4.0, and IC50 was obtained by non-linear regression model using dose-response curve.

[2] = tested on: HCC827 (non-small cell lung cancer cells, EGFR del E746-A750); assay: Cell proliferation and growth inhibition analysis; assay type: cell-based; settings: Homo sapiens, 72 hours, read-out: Inhibitory activity on cell proliferation (IC50, μM) HCC827
Method: as §1, §2

[3] = tested on: A549 (non-small cell lung cancer cells, EGFR wild-type); assay: Cell proliferation and growth inhibition analysis; assay type: cell-based; settings: Homo sapiens, 72 hours, read-out: Inhibitory activity on cell proliferation (IC50, μM) A549
Method: as §1, with “Cell proliferation and growth inhibition analysis: H1975 (non-small cell lung cancer cells, EGFR^L858/T790M), HCC827 (non-small cell lung cancer cells, EGFR^del E746-A750), A549 (non-small cell lung cancer cells, EGFR wild-type), BT474 (breast cancer cells, Her2 overexpression), SK-BR-3 (breast cancer cells, Her2 overexpression), MCF-7 (breast cancer cells, […]) cells were obtained from ATCC. Cell proliferation” for “Cell proliferation”

[4] = tested on: BT474 (breast cancer cells, Her2 overexpression); assay: Cell proliferation and growth inhibition analysis; assay type: cell-based; settings: Homo sapiens, BT-474, 72 hours, read-out: Inhibitory activity on cell proliferation (IC50, μM) BT474
Method: as §1, with “Cell proliferation and growth inhibition analysis: H1975 (non-small cell lung cancer cells, EGFR^L858/T790M), HCC827 (non-small cell lung cancer cells, EGFR^del E746-A750), A549 (non-small cell lung cancer cells, EGFR wild-type), BT474 (breast cancer cells, Her2 overexpression), SK-BR-3 (breast cancer cells, Her2 overexpression), MCF-7 (breast cancer cells, […]) cells were obtained from ATCC. Cell proliferation” for “Cell proliferation”

MCF-7 = assay: Cell proliferation and growth inhibition analysis; assay type: cell-based; settings: Homo sapiens, MCF7; MCF-7 cells, 72 hours; read-out: Inhibitory activity on cell proliferation (IC50, μM) MCF-7
Method: as §1, with “Cell proliferation and growth inhibition analysis: H1975 (non-small cell lung cancer cells, EGFR^L858/T790M), HCC827 (non-small cell lung cancer cells, EGFR^del E746-A750), A549 (non-small cell lung cancer cells, EGFR wild-type), BT474 (breast cancer cells, Her2 overexpression), SK-BR-3 (breast cancer cells, Her2 overexpression), MCF-7 (breast cancer cells, […]) cells were obtained from ATCC. Cell proliferation” for “Cell proliferation”

[5] = tested on: SK-BR-3 (breast cancer cells, Her2 overexpression); assay: Cell proliferation and growth inhibition analysis; assay type: cell-based; settings: Homo sapiens; SK-BR-3 cells, 72 hours; read-out: Inhibitory activity on cell proliferation (IC50, μM) SK-BR-3
Method: as §1, with “Cell proliferation and growth inhibition analysis: H1975 (non-small cell lung cancer cells, EGFR^L858/T790M), HCC827 (non-small cell lung cancer cells, EGFR^del E746-A750), A549 (non-small cell lung cancer cells, EGFR wild-type), BT474 (breast cancer cells, Her2 overexpression), SK-BR-3 (breast cancer cells, Her2 overexpression), MCF-7 (breast cancer cells, […]) cells were obtained from ATCC. Cell proliferation” for “Cell proliferation”

BLK = BLK (Homo sapiens (Human), UniProt P51451); assay: BLK kinase activity assay (Caliper); assay type: biochemical; settings: read-out: Inhibitory activity on kinase (IC50, nM) BLK
Method: (§3) Preparation of 1× kinase matrix buffer and stop buffer.
(§4) Preparation of compound solution. The compound was dissolved in 100% DMSO to a concentration, which was 50 times of the final highest inhibiting-concentration. 100 μL of the compound solution as said above was transferred into wells of 96-well plate. The above compound solution was sequentially diluted to the final desired concentration. In two blank wells of same 96-well plate, 100 μL of 100% DMSO was added as no-compound and no-kinase control, and this plate was used as the original plate.
(§5) Preparation of intermediate plate. 10 μL of compound solution was transferred from the original plate to another 96-well plate as the intermediate plate; 90 μL of 1× kinase buffer was added into each well of the intermediate plate, and the intermediate plate was shaken for 10 min.
(§6) Preparation of assay plate. 5 μL of solution from each well of intermediate plate was added into a 384-well plate, and repeated controls were set.
(§7) Kinase reaction. 2.5× kinase solution and 2.5× peptide solution were prepared. 2.5× kinase solution was transferred into assay plate. Assay plate comprised 5 μL of the compound solution in 10% DMSO. 10 μL of 2.5× kinase solution was added in each well of 384-well assay plate. […] 2.5× peptide solution was added into each well. After incubated at 28° C. for an appropriate time, 25 μL of stop buffer was added to quench the reaction. Experimental data were collected in Caliper. Curve was fitted.

FLT3 = FLT3 (Homo sapiens (Human), UniProt P36888); assay: FLT3 kinase activity assay (Caliper); assay type: biochemical; settings: read-out: Inhibitory activity on kinase (IC50, nM) FLT3
Method: as §3, §4, §5, §6, §7

EGFR-T790M = EGFR-T790M (Homo sapiens (Human), UniProt P00533, T790M); assay: In vitro EGFR kinase activity assay (Z'-Lyte); settings: read-out: Inhibitory activity on EGFR kinase (IC50, nM) T790M
Method: as §8, §9, §10

Sequence of wild-type EGFR (P00533 25-1210): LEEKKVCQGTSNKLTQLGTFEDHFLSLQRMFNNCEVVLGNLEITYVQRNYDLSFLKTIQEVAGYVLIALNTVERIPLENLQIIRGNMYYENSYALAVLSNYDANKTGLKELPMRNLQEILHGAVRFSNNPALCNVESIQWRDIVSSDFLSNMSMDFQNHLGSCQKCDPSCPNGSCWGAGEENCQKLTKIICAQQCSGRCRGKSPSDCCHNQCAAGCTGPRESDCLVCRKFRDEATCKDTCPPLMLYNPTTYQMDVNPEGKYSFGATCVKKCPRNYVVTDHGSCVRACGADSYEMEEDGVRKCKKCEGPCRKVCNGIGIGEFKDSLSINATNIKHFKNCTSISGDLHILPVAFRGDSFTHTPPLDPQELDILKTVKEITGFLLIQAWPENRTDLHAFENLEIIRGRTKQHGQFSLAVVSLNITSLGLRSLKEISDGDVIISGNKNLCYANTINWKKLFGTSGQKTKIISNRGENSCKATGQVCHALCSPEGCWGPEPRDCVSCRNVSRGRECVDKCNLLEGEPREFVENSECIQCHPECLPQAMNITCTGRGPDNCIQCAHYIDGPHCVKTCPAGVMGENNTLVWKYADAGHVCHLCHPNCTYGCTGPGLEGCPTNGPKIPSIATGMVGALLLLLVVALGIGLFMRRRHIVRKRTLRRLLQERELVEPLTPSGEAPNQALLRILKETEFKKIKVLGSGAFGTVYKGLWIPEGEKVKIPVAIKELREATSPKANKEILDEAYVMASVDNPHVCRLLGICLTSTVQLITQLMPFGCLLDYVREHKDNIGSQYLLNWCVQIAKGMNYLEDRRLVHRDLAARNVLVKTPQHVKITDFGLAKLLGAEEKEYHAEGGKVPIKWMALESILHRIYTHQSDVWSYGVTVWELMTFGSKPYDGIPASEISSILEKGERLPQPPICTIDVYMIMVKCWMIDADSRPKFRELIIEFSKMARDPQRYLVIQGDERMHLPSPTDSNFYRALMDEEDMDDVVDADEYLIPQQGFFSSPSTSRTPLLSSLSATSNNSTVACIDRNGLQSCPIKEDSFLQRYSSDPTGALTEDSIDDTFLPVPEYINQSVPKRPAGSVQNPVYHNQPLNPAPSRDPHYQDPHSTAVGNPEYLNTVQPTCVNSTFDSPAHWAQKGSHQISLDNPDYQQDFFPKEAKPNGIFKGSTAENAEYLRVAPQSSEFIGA
Sequence of EGFR-L858R/T790M (P00533 25-1210 T790M/L858R): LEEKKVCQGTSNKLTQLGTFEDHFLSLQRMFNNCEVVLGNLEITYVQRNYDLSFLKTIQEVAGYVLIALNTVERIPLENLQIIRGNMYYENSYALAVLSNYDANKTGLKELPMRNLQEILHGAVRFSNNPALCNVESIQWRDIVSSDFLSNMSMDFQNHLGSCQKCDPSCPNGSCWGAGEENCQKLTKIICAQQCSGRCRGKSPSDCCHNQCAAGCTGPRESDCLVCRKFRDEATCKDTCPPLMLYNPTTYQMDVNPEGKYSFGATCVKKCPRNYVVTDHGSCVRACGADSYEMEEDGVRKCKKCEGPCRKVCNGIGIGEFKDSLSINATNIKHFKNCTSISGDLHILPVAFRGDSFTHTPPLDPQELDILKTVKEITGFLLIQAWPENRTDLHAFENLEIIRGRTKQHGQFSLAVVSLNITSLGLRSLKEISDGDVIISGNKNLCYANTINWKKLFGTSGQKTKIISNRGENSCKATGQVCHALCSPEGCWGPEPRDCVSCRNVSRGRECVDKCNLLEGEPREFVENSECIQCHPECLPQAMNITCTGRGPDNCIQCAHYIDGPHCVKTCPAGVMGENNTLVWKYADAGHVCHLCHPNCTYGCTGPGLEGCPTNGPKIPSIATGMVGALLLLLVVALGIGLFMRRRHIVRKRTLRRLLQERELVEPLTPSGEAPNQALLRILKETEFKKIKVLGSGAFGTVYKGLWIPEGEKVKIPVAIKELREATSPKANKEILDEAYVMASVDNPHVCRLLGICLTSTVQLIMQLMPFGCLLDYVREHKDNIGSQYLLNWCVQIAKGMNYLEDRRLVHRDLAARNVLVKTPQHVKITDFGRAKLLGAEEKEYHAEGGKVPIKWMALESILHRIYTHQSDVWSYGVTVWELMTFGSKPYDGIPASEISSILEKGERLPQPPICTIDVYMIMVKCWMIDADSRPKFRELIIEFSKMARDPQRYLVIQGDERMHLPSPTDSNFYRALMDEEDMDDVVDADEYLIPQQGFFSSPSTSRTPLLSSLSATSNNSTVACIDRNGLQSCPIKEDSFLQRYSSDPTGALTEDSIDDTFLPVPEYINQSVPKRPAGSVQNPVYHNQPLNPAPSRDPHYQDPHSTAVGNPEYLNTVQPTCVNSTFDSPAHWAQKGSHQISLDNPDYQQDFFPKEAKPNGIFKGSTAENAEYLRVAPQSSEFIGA
Sequence of BLK (P51451 whole entry): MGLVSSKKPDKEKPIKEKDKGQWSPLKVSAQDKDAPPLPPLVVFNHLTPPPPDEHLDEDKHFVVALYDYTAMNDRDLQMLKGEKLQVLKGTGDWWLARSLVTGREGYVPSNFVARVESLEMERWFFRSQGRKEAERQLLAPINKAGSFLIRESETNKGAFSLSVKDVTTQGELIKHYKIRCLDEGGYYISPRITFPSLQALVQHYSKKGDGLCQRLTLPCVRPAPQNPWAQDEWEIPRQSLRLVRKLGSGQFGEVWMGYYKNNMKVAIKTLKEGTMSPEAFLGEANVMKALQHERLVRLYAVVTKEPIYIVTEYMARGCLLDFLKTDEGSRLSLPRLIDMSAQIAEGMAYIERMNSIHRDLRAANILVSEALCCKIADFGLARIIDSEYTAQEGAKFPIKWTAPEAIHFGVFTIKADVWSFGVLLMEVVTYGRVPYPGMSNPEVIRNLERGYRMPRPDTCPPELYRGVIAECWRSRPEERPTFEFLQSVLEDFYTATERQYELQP
Sequence of FLT3 (P36888 27-993): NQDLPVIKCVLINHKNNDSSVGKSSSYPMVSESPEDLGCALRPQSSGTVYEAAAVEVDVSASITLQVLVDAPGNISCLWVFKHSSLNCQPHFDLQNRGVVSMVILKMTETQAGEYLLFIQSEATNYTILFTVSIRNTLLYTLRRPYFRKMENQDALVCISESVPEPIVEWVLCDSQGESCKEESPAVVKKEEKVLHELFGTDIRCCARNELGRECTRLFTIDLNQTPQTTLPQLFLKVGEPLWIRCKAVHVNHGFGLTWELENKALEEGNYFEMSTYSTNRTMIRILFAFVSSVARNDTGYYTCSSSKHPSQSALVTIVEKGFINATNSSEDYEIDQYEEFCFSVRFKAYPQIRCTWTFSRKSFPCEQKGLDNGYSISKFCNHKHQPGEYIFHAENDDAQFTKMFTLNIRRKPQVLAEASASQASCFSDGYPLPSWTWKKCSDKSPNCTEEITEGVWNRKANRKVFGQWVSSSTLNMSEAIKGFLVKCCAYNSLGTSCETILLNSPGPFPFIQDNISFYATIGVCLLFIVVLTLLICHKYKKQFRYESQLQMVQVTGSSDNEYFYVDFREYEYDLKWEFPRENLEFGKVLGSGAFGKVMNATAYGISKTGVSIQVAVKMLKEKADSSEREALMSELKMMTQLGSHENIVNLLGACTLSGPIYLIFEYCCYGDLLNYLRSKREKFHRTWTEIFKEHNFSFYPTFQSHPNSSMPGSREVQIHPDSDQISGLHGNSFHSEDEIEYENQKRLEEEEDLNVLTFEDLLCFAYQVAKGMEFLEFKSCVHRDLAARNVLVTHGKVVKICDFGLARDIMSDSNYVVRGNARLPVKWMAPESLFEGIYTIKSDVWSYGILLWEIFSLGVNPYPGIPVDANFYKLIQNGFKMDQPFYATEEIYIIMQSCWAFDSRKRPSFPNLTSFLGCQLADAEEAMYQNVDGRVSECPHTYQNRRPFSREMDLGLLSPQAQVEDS
Sequence of EGFR-L858R (P00533 25-1210 L858R): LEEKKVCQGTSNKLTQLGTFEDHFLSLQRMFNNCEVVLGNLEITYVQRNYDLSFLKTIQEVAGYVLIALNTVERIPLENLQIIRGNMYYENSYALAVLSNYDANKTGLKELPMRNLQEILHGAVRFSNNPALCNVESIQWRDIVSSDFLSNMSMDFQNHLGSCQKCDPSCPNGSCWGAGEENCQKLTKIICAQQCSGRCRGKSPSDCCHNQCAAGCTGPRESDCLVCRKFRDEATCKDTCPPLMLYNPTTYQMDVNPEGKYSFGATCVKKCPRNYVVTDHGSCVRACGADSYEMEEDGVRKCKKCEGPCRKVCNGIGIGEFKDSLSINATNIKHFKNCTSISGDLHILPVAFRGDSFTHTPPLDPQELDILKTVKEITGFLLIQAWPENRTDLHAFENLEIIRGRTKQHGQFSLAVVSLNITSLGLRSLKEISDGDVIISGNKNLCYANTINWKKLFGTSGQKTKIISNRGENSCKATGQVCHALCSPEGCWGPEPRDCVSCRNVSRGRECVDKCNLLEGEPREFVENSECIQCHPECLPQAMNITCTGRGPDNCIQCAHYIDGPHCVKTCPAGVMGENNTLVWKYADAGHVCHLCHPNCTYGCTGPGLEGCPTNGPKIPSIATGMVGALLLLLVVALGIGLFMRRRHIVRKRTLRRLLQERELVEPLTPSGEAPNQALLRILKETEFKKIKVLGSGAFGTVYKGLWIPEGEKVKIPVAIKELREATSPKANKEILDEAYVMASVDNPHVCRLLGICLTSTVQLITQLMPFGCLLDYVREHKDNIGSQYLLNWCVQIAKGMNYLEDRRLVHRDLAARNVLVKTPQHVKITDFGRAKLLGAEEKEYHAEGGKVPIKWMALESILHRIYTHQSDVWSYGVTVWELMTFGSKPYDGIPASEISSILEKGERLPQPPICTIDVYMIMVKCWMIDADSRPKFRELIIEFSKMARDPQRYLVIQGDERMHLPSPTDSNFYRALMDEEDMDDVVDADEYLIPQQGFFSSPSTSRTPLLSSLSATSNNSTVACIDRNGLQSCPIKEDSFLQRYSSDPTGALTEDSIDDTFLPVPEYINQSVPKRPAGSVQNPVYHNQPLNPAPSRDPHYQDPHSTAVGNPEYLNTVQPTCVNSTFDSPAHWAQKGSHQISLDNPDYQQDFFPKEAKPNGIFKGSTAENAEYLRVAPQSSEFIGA

| SMILES | IC50 (wild-type EGFR) [nM] | IC50 (EGFR-L858R) [nM] | IC50 (EGFR-L858R/T790M) [nM] | IC50 [1] [µM] | IC50 [2] [µM] | IC50 (BLK) [nM] | IC50 (FLT3) [nM] | IC50 [3] [µM] | IC50 [4] [µM] | IC50 (MCF-7) [µM] | IC50 [5] [µM] | IC50 (EGFR-T790M) [nM] |
| --- | --- | --- | --- | --- | --- | --- | --- | --- | --- | --- | --- | --- |
| COc1ccc(Nc2ncc3ncc(=O)n(-c4ccc(N)cc4)c3n2)cc1 [Compound 001] | > 10000 | > 10000 | > 10000 | > 10 | > 10 | > 10000 | 27 | > 10 | > 10 | > 10 | > 10 | > 10000 |
| C=CC(=O)Nc1cccc(-n2c(=O)cnc3cnc(Nc4ccc(OC)cc4)nc32)c1 [Compound 006, N-(3-(2-(4-methoxyphenylamino)-7-oxo-8(7H)-pteridin-yl)phenyl) acrylamide] | 10.6 | 10.1 | 8.4 | 0.133 | 0.009 | 69 | 1590 | 0.73 | 2.24 | 15 | 2.35 | 19.4 |
| CCC(=O)Nc1cccc(-n2c(=O)cnc3cnc(Nc4ccc(OC)cc4)nc32)c1 [Compound 007, N-(3-(2-(4-methoxyphenylamino)-7-oxo-8(7H)-pteridin-yl)phenyl) propionamide] | > 10000 | > 10000 | > 10000 | > 10 | > 10 | > 10000 | 1490 | > 10 | > 10 | > 10 | > 10 | > 10000 |
| CCC(=O)Nc1ccc(-n2c(=O)cnc3cnc(Nc4ccc(OC)cc4)nc32)cc1 [Compound 008, N-(4-(2-(4-methoxyphenylamino)-7-oxo-8(7H)-pteridin-yl)phenyl) propionamide] | > 10000 | > 10000 | > 10000 | > 10 | > 10 | > 10000 | 115 | 6.12 | > 10 | > 10 | > 10 | > 10000 |
| COc1ccc(Nc2ncc3ncc(=O)n(-c4ccc(NC(=O)/C=C/CN(C)C)cc4)c3n2)cc1 [Compound 009, 4-(dimethylamino)-N-(4-(2-(4-methoxyphenylamino)-7-oxo-8(7H)-pteridin-yl)phenyl)-2-buteneamide] | 60.7 | 81.1 | 39.1 | 4.65 | 0.91 | 5310 | 152 | 2.24 | 0.84 | 2.41 | 1.15 | 10.9 |
| COc1ccc(Nc2ncc3ncc(=O)n(-c4cccc(N)c4)c3n2)cc1 [Compound 005] | > 10000 | 87200 | > 10000 | > 10 | > 10 | > 10000 | 30 | > 10 | > 10 | > 10 | > 10 | > 10000 |
| C=CC(=O)Nc1ccc(-n2c(=O)c(C)nc3cnc(Nc4ccc(OC)cc4)nc32)cc1 [Compound 004, N-(4-(2-(4-methoxyphenylamino)-6-methyl-7-oxo-8(7H)-pteridin-yl)phenyl)acrylamide] | 3180 | 4880 | > 10000 | > 10 | 3.33 | > 10000 | 206 | > 10 | > 10 | > 10 | > 10 | > 10000 |
| C=CC(=O)Nc1cccc(-n2c(=O)cnc3cnc(Nc4ccc(N(CC)CC)cc4)nc32)c1 [Compound 023, N-(3-(2-(4-(diethylamino)phenylamino)-7-oxo-8(7H)-pteridin-yl)phenyl) acrylamide] | 23.1 | 16.3 | 5.57 | 0.477 | 0.031 | 83 | 1760 | – | – | – | – | – |

Second part, led by results:

| IC50 (wild-type EGFR) [nM] | IC50 (EGFR-L858R) [nM] | IC50 (EGFR-L858R/T790M) [nM] | IC50 [1] [µM] | IC50 [2] [µM] | IC50 (BLK) [nM] | IC50 (FLT3) [nM] | SMILES | IC50 [3] [µM] | IC50 [4] [µM] | IC50 (MCF-7) [µM] | IC50 [5] [µM] | IC50 (EGFR-T790M) [nM] |
| --- | --- | --- | --- | --- | --- | --- | --- | --- | --- | --- | --- | --- |
| 8090 | 6080 | 2020 | > 10 | 4.16 | 106 | 4390 | COc1ccc(Nc2ncc3ncc(=O)n(-c4cccc(NC(=O)/C=C/CN(C)C)c4)c3n2)cc1 [Compound 010, 4-(dimethylamino)-N-(3-(2-(4-methoxyphenylamino)-7-oxo-8(7H)-pteridin-yl)phenyl)-2-buteneamide] | > 10 | 3.43 | 3.6 | 7.17 | 2250 |
| 446 | 546 | 606 | 2.75 | 1.29 | 3040 | 128 | C=CC(=O)Nc1ccc(-n2c(=O)cnc3cnc(Nc4ccc(OC)cc4)nc32)cc1 [Compound 002, N-(4-(2-(4-methoxyphenylamino)-7-oxo-8(7H)-pteridin-yl)phenyl)acrylamide] | 1.23 | > 10 | 1.51 | 1.57 | 665 |
| 67 | 84.8 | 70.3 | 5.6 | 2.29 | 89 | 48 | C=CC(=O)Oc1ccc(-n2c(=O)cnc3cnc(Nc4ccc(OC)cc4)nc32)cc1 [Compound 011, 4-(2 (4-methoxyphenylamino)-7-oxo-8(7H)-pteridin-yl)phenyl acrylate] | – | – | – | – | – |
| 8010 | 4080 | 3300 | > 10 | 3.01 | 4170 | 137 | C=CC(=O)Nc1ccc(-n2c(=O)cnc3cnc(Nc4ccc(N5CCOCC5)cc4)nc32)cc1 [Compound 003, N-(4-(2-(4-morpholino-phenylamino)-7-oxo-8(7H)-pteridin-yl)phenyl)acrylamide] | > 10 | > 10 | > 10 | > 10 | 8700 |
